Source: ChEMBL document CHEMBL4052796, “Design, synthesis and biological evaluation of dual acetylcholinesterase and phosphodiesterase 5A inhibitors in treatment for Alzheimer's disease” (Bioorg Med Chem Lett, 2017)

Experiments:
[1] = target: cGMP-specific 3',5'-cyclic phosphodiesterase (Homo sapiens, UniProt O76074); assay: Inhibition of human PDE5A preincubated for 30 mins followed by TMB substrate addition by spectrophotometry
Acetylcholinesterase = Acetylcholinesterase (Homo sapiens, UniProt P22303); assay: Inhibition of AChE (unknown origin) using acetylthiocholine as substrate by Ellman's method
A549 = assay: Cytotoxicity against human A549 cells at 50 ug/ml after 24 hrs by CCK-8 assay; type: cell-based; settings: a549, 24 h

Sequence of Acetylcholinesterase (P22303 whole entry): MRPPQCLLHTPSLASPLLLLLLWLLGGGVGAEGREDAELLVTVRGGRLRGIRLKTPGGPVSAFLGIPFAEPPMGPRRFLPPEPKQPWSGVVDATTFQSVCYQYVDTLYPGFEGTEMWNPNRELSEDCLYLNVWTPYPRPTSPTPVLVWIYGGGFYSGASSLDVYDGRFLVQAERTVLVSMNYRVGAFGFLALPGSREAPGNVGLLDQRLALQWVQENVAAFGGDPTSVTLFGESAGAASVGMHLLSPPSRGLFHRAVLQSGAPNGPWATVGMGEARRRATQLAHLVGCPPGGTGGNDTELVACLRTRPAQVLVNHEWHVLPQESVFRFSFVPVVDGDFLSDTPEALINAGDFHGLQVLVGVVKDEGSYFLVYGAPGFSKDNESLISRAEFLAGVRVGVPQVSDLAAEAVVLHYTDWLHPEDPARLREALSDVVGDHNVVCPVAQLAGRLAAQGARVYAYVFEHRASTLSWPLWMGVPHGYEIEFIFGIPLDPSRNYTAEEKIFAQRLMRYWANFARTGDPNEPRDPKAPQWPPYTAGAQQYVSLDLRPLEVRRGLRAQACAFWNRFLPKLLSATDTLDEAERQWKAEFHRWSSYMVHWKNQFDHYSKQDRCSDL

| SMILES | IC50 [1] [µM] | IC50 (Acetylcholinesterase) [µM] | Activity (A549) |
| --- | --- | --- | --- |
| COc1ccc(NCc2ccc3c(c2)C(=O)C(=O)N3C(=O)c2ccccc2)cc1 | 100 | 0.17 | – |
| CN1CCN(Cc2ccc3c(c2)C(=O)C(=O)N3C(=O)c2ccccc2)CC1 | > 1000 | 0.0479 | – |
| COC(=O)C(=O)c1cc(C)ccc1NC(=O)c1ccccc1 | – | > 1 | – |
| O=C(O)CCC(=O)NCc1ccc2c(c1)CC(=O)N2C(=O)c1ccccc1 | 17.6 | > 1 | – |
| CCN(CC)Cc1ccc(NC(=O)c2ccccc2)c(C(=O)C(=O)N(CC)CC)c1 | 158 | 0.0447 | Non-Toxic |
| Cc1ccc2c(c1)C(=O)C(=O)N2C(=O)c1ccccc1 | 746 | > 1 | – |
| Cc1ccc2c(c1)C(=O)C(=O)N2Cc1ccccc1[N+](=O)[O-] | 200 | 0.2 | – |
| O=C(Nc1ccc(CN2CCOCC2)cc1C(=O)C(=O)N1C(=O)CCC1=O)c1ccccc1 | – | 0.229 | – |
| O=C1C(=O)N(Cc2ccccc2[N+](=O)[O-])c2ccc(Br)cc21 | – | 0.263 | – |
| O=C1C(=O)N(C(=O)c2ccccc2)c2ccc(CN3CCCCC3)cc21 | 50 | 0.0794 | Non-Toxic |
| O=C1C(=O)N(C(=O)c2ccccc2)c2ccc(CNc3ccc(Br)cc3)cc21 | – | 0.398 | – |
| Cc1ccc2c(c1)CC(=O)N2C(=O)c1ccccc1 | 91.2 | > 1 | – |
| Cc1ccc2c(c1)C(=O)C(=O)N2C(=O)N(C)C | 100 | 0.144 | Non-Toxic |
| O=C1C(=O)N(Cc2ccc(Br)cc2)c2ccc(Br)cc21 | 131 | 0.0891 | – |
| Cc1ccc2c(c1)C(=O)C(=O)N2Cc1ccc(Br)cc1 | – | 0.204 | – |
